Test results taken from US20230203063A1, “TRICYCLIC PYRIDONES AND PYRIMIDONES” (Erasca, Inc., priority 2019, published 2023).

Molecular target: T1, mutant G12C K-RAS (Homo sapiens, UniProt P01116, G12C)
T1 construct: made in house; host or cells: E. coli BL21
Assay: covalent adduct formation (CAF) with mutant G12C K-RAS
Type: binding
Design: covalent adduct formation (CAF): unit not given here
Settings: Table 1; 10 micromolar, after 60 minutes
Experimental: Embodiments disclosed herein are further illustrated by the following examples in Tables 1-4 and the Examples hereinbelow. The Tables indicate the compound number, structure, the observed mass spectral molecular weight peak, and covalent adduct formation (CAF) with a mutant G12C K-RAS after 60 minutes at a concentration of 10 micromolar.

Row | SMILES | % CAF(60 min) [%]
1 | C=CC(=O)N1CC2(CCN(c3nc(=O)n4c5c(c(-c6c(O)cccc6F)c(Cl)cc35)OCC4)CC2)C1 [Example 2, 7-(2-acryloyl-2,7-diazaspiro[3.5]nonan-7-yl)-9-chloro-10-(2-fluoro-6-hydroxyphenyl)-2H-[1,4]oxazino[2,3,4-ij]quinazolin-5(3H)-one] | 42.5
2 | C=CC(=O)N1CCN(c2nc(=O)n3c4c(c(-c5c(O)cccc5F)c(Cl)cc24)OCC3)CC1 [Example 1, 7-(4-acryloylpiperazin-1-yl)-9-chloro-10-(2-fluoro-6-hydroxyphenyl)-2H-[1,4]oxazino[2,3,4-ij]quinazolin-5(3H)-one] | 89

Same assay, conditions: Table 2; 10 micromolar, after 60 minutes

Row | SMILES | % CAF(60 min) [%]
3 | C=CC(=O)N1CCN(c2nc(=O)n3c4c(c(-c5c(O)cccc5F)c(Cl)cc24)OC[C@H]3CO)[C@@H](C)C1 [Example 23, (3R,10R)-7-((S)-4-acryloyl-2-methylpiperazin-1-yl)-9-chloro-10-(2-fluoro-6-hydroxyphenyl)-3-(hydroxymethyl)-2H-[1,4]oxazino[2,3,4-ij]quinazolin-5(3H)-one] | 0

Same assay, conditions: Table 4; 10 micromolar, after 60 minutes

Row | SMILES | % CAF(60 min) [%]
4 | C=CC(=O)N1C[C@H](C)N(c2c(C#N)c(=O)n3c4c(c(-c5ccc(F)cc5F)ccc24)OC[C@H]3CN(C)C)C[C@H]1C [Example 52, (R)-7-((2S,5R)-4-acryloyl-2,5-dimethylpiperazin-1-yl)-10-(2,4-difluorophenyl)-3-((dimethylamino)methyl)-5-oxo-3,5-dihydro-2H-[1,4]oxazino[2,3,4-ij]quinoline-6-carbonitrile] | 0

Same assay, conditions: Table 6; 10 uM, 1 h

Row | SMILES | % CAF @ 10 uM, 1 h [%]
5 | C=CC(=O)N1C[C@H](C)N(c2nc(=O)n3c4c(c(-c5c(O)cccc5F)c(Cl)cc24)OC[C@H]3CN2CCN(C)CC2)C[C@H]1C (atropisomer, axis not shown) [Example 300, (3R,10R)-7-((2S,5R)-4-acryloyl-2,5-dimethylpiperazin-1-yl)-9-chloro-10-(2-fluoro-6-hydroxyphen-yl)-3-((4-methylpiper-azin-1-yl)methyl)-2,3-dihydro-5H-[1,4]-oxazino[2,3,4-ij]-quinazolin-5-one] | 0
6 | C=CC(=O)N1C[C@H](C)N(c2nc(=O)n3c4c(c(-c5c(O)cccc5F)c(Cl)cc24)OC[C@@H]3CN2CCC(F)(F)C2)C[C@H]1C [Example 220, (3S,10R)-7-((2S,5R)-4-acryloyl-2,5-dimethylpiperazin-1-yl)-9-chloro-3-((3,3-difluoropyrrolidin-1-yl)methyl)-10-(2-fluoro-6-hydroxyphenyl)-2,3-dihydro-5H-[1,4]oxazino[2,3,4-ij]quinazolin-5-one] | 0
7 | C=CC(=O)N1C[C@H](C)N(c2nc(=O)n3c4c(c(-c5c(C)ccc6[nH]ncc56)c(Cl)cc24)OC[C@@H]3CCCN2C3CCC2COC3)C[C@H]1C [Example 281, (3S,10S)-3-(3-(3-oxa-8-azabicyclo[3.2.1]octan-8-yl)propyl)-7-((2S,5R)-4-acryloyl-2,5-dimethylpiperazin-1-yl)-9-chloro-10-(5-methyl-1H-indazol-4-yl)-2,3-dihydro-5H-[1,4]oxazino [2,3,4-ij] quinazolin-5-one] | 0
8 | C=CC(=O)N1C[C@H](C)N(c2nc(=O)n3c4c(c(-c5ccc(F)cc5F)c(Cl)cc24)OC[C@H]3CCCN2C3CCC2CN(C)C3)C[C@H]1C [Example 321, (3R)-7-((2S,5R)-4-acryloyl-2,5-dimethylpiperazin-1-yl)-9-chloro-10-(2,4-difluorophenyl)-3-(3-(3-methyl-3,8-diazabicyclo[3.2.1]octan-8-yl)propyl)-2,3-dihydro-5H-[1,4]oxazino [2,3,4-ij] quinazolin-5-one] | 71.2
9 | C=CC(=O)N1CCN(c2nc(=O)n3c4c(c(-c5c(O)cccc5F)c(Cl)cc24)OC[C@H]3CN2CCC(F)(F)C2)[C@@H](C)C1 (atropisomer, axis not shown) [Example 227, (3R,10R)-7-((S)-4-acryloyl-2-methyl-piperazin-1-yl)-9-chloro-3-((3,3-difluoropyrrolidin-1-yl)methyl)-10-(2-fluoro-6-hydroxyphenyl)-2,3-dihydro-5H-[1,4]-oxazino-[2,3,4-ij]-quinazolin-5-one] | 0
10 | C=CC(=O)N1C[C@H](C)N(c2nc(=O)n3c4c(c(-c5c(F)ccc6cc[nH]c(=O)c56)ccc24)OCC3)C[C@H]1C [Example 224, 7-((2S,5R)-4-acryloyl-2,5-dimethylpiperazin-1-yl)-10-(7-fluoro-1-oxo-1,2-dihydroisoquinolin-8-yl)-2,3-dihydro-5H-[1,4]oxazino[2,3,4-ij]quinazolin-5-one] | 0
11 | C=CC(=O)N1C[C@H](C)N(c2nc(=O)n3c4c(c(-c5c(F)ccc6[nH]cnc56)ccc24)OCC3)C[C@H]1C [Example 201, 7-((2S,5R)-4-acryloyl-2,5-dimethylpiperazin-1-yl)-10-(5-fluoro-1H-benzo[d]imidazol-4-yl)-2,3-dihydro-5H-[1,4]oxazino[2,3,4-ij]quinazolin-5-one] | 0
12 | C=CC(=O)N1C[C@H](C)N(c2nc(=O)n3c4c(c(-c5c(O)cccc5F)c(Cl)cc24)OC[C@@H]3CN2CCOCC2)C[C@H]1C (atropisomer, axis not shown) [Example 208, (3R,10R)-7-((2S,5R)-4-acryloyl-2,5-dimethyl-piperazin-1-yl)-9-chloro-10-(2-fluoro-6-hydroxyphenyl)-3-(morpholinomethyl)-2,3-dihydro-5H-[1,4]-oxazino[2,3,4-ij]-quinazolin-5-one] | 0
13 | C=CC(=O)N1C[C@H](C)N(c2nc(=O)n3c4c(c(-c5c(O)cccc5F)c(Cl)cc24)OC[C@H]3CN2CCOCC2)C[C@H]1C (atropisomer, axis not shown) [Example 210, (3R,10R)-7-((2S,5R)-4-acryloyl-2,5-dimethyl-piperazin-1-yl)-9-chloro-10-(2-fluoro-6-hydroxyphenyl)-3-(morpholinomethyl)-2,3-dihydro-5H-[1,4]-oxazino-[2,3,4-ij]-quinazolin-5-one] | 0
14 | C=CC(=O)N1C[C@H](C)N(c2nc(=O)n3c4c(c(-c5c(O)cccc5F)c(Cl)cc24)OC[C@H]3CN(C)CC(F)(F)F)C[C@H]1C (atropisomer, axis not shown) [Example 241, (3R,10R)-7-((2S,5R)-4-acryloyl-2,5-dimethylpiperazin-1-yl)-9-chloro-10-(2-fluoro-6-hydroxyphen-yl)-3-((methyl(2,2,2-trifluoroethyl)amino)-methyl)-2H-[1,4]-oxazino[2,3,4-ij]-quinazolin-5(3H)-one] | 0

Same assay, conditions: Table 7; 10 micromolar, after 60 minutes

Row | SMILES | covalent adduct formation (CAF)
15 | C=CC(=O)N1CCN(c2nc(=O)n3c4c(c(-c5ccc(F)cc5F)c(Cl)cc24)SC[C@@H]3CCCN2C[C@@H]3C[C@H]2CO3)[C@@H](C)C1 [Example 342, (3S)-3-(3-((1S,4S)-2-oxa-5-azabicyclo [2.2.1]heptan-5-yl)-propyl)-7-((S)-4-acryloyl-2-methyl-piperazin-1-yl)-9-chloro-10-(2,4-difluorophenyl)-2H-[1,4]thiazino[2,3,4-ij]-quinazolin-5(3H)-one] | 94.7
16 | C=CC(=O)N1CCN(c2nc(=O)n3c4c(c(-c5c(F)cc(F)cc5F)c(Cl)cc24)SC[C@@H]3CCCN2C[C@@H]3C[C@H]2CO3)[C@@H](C)C1 [Example 340, (S)-3-(3-((1S,4S)-2-oxa-5-azabicyclo-[2.2.1]heptan-5-yl)-propyl)-7-((S)-4-acryloyl-2-methyl-piperazin-1-yl)-9-chloro-10-(2,4,6-trifluorophenyl)-2H-[1,4]thiazino[2,3,4-ij]-quinazolin-5(3H)-one] | 96.9
17 | C=CC(=O)N1CCN(c2nc(=O)n3c4c(c(-c5ccc(F)cc5F)c(Cl)cc24)SC[C@H]3CC2CCN(C)CC2)[C@@H](C)C1 [Example 345, (3R)-7-((S)-4-acryloyl-2-methylpiperazin-1-yl)-9-chloro-10-(2,4-difluorophenyl)-3-((1-methylpiperidin-4-yl)-methyl)-2H-[1,4]-thiazino-[2,3,4-ij]-quinazolin-5(3H)-one] | 82.4
18 | C=CC(=O)N1CCN(c2nc(=O)n3c4c(c(-c5ccc(F)cc5F)c(Cl)cc24)SC[C@H]3CCCN2C[C@@H]3C[C@H]2CO3)[C@@H](C)C1 [Example 341, (3R)-3-(3-((1S,4S)-2-oxa-5-azabicyclo[2.2.1]heptan-5-yl)propyl)-7-((S)-4-acryloyl-2-methylpiperazin-1-yl)-9-chloro-10-(2,4-difluorophenyl)-2H-[1,4]thiazino[2,3,4-ij]quinazolin-5 (3H)-one] | 96.5
19 | C=CC(=O)N1CCN(c2nc(=O)n3c4c(c(-c5c(F)cc(F)cc5F)c(Cl)cc24)SC[C@H]3CCCN2C[C@@H]3C[C@H]2CO3)[C@@H](C)C1 [Example 339, (R)-3-(3-((1S,4S)-2-oxa-5-azabicyclo-[2.2.1]heptan-5-yl)-propyl)-7-((S)-4-acryloyl-2-methyl-piperazin-1-yl)-9-chloro-10-(2,4,6-trifluorophenyl)-2H-[1,4]thiazino[2,3,4-ij]-quinazolin-5(3H)-one] | 96.6
